Test results taken from patent US20250368649A1, “TETRAHYDROPYRIDOPYRIMIDINE PAN-KRAS INHIBITORS” (Mirati Therapeutics, Inc., priority 2022, published 2025).

How the values were obtained:
H460 cells = experiment: Inhibition of KRas-mediated phosphorylation of ERK (Cisbio HTRF pERK), H460 cells; format: cell-based; settings: Homo sapiens, NCI-H460, 3 h, 3 hr compound incubation
KRas G12D = KRas G12D (Homo sapiens, UniProt P01116, G12D); experiment: biochemical; settings: Binding to KRas (IC50 nM) G12D, TR-FRET displacement, KRas G12D
H727 cells = experiment: Inhibition of KRas-mediated phosphorylation of ERK (Cisbio HTRF pERK), H727 cells; format: cell-based; settings: Homo sapiens, NCI-H727, 3 h, 3 hr compound incubation
MKN1 cells = experiment: Inhibition of KRas-mediated phosphorylation of ERK (Cisbio HTRF pERK), MKN1 cells; format: cell-based; settings: Homo sapiens
Procedure, shortened: (§1)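 Phospho-ERK signal measured by HTRF after cells had been plated at 6,000/well in RPMI supplemented with 10% FBS on day 1.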

HCT116 cells = experiment: Inhibition of KRas-mediated phosphorylation of ERK (Cisbio HTRF pERK), HCT116 cells; format: cell-based; settings: Homo sapiens, HCT-116, 3 h, 3 hr compound incubation
ASPC1 cells = experiment: Inhibition of KRas-mediated phosphorylation of ERK (Cisbio HTRF pERK), ASPC1 cells; format: cell-based; settings: Homo sapiens, ASPC1, 3 h, AsPC-1 cells, 3 hr compound incubation
PSN1 cells = experiment: Inhibition of KRas-mediated phosphorylation of ERK (Cisbio HTRF pERK), PSN1 cells; format: cell-based; settings: Homo sapiens, PSN1, 3 h
Procedure, shortened: as §1

H358 cells = experiment: Inhibition of KRas-mediated phosphorylation of ERK (Cisbio HTRF pERK), H358 cells; format: cell-based; settings: Homo sapiens, NCI-H358, 3 h, 3 hr compound incubation
KRas G12R = KRas G12R (Homo sapiens, UniProt P01116, G12R); experiment: biochemical; settings: Binding to KRas (IC50 nM) G12R, TR-FRET displacement, KRas G12R
KRas G12V = KRas G12V (Homo sapiens, UniProt P01116, G12V); experiment: biochemical; settings: Binding to KRas (IC50 nM) G12V, TR-FRET displacement, KRas G12V
A549 cells = experiment: Inhibition of KRas-mediated phosphorylation of ERK (Cisbio HTRF pERK), A549 cells; format: cell-based; settings: Homo sapiens, A549, 3 h, 3 hr compound incubation
[1] = MKN-1, 3 hr compound incubation

KRas G12D, sequence (P01116 1-169 isoform P01116-2 G12D): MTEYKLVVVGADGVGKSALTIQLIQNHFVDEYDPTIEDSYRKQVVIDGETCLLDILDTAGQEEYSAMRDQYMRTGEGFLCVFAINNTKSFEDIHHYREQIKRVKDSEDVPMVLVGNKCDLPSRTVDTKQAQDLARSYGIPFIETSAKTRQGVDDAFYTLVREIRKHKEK
KRas G12R, sequence (P01116 1-169 isoform P01116-2 G12R): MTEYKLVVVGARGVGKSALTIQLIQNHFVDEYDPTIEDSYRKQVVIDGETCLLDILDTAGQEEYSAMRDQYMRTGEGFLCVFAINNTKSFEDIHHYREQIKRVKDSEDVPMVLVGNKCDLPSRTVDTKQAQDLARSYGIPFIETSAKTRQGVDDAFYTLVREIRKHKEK
KRas G12V, sequence (P01116 1-169 isoform P01116-2 G12V): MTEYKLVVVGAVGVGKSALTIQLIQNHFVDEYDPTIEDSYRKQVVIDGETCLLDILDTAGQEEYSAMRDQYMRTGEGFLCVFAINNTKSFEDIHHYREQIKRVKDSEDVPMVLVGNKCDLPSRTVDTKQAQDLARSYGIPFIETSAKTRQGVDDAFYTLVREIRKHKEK

CCc1c(F)ccc2cc(O)cc(N3CCc4c(nc(OC[C@@]56CCCN5C[C@H](F)C6)nc4N4CCCn5nc(C(=O)N6CCNC7CC6C7)cc5C4)C3)c12 [Example 608, (2,5-diazabicyclo[4.1.1]octan-2-yl)(5-(7-(8-ethyl-7-fluoro-3-hydroxynaphthalen-1-yl)-2-(((2R,7aS)-2-fluorotetrahydro-1H-pyrrolizin-7a(5H)-yl)methoxy)-5,6,7,8-tetrahydropyrido[3,4-d]pyrimidin-4-yl)-5,6,7,8-tetrahydro-4H-pyrazolo[1,5-a][1,4]diazepin-2-yl)methanone]
IC50 (H460 cells; Cisbio pERK HTRF): 353 nM | IC50 (KRas G12D): < 2 nM | IC50 (H727 cells; Cisbio pERK HTRF): 274 nM | IC50 (MKN1 cells; MKN-1, 3 hour compound incubation, Cisbio pERK HTRF): 49.7 nM | IC50 (HCT116 cells; Cisbio pERK HTRF): 544 nM | IC50 (ASPC1 cells; Cisbio pERK HTRF): 46 nM | IC50 (PSN1 cells; 3 hour compound incubation, Cisbio pERK HTRF): > 10000 nM | IC50 (H358 cells; Cisbio pERK HTRF): 42 nM | IC50 (KRas G12R): < 2 nM | IC50 (KRas G12V): < 2 nM | IC50 (A549 cells; Cisbio pERK HTRF): 215 nM

CCc1c(F)ccc2cc(O)cc(N3CCc4c(nc(OC[C@@]56CCCN5C[C@H](F)C6)nc4N4CCCn5nc(C(=O)N6CC[C@H]7C[C@H]76)cc5C4)C3)c12 [Example 614, ((1R,5S)-2-azabicyclo[3.1.0]hexan-2-yl)(5-(7-(8-ethyl-7-fluoro-3-hydroxynaphthalen-1-yl)-2-(((2R,7aS)-2-fluorotetrahydro-1H-pyrrolizin-7a(5H)-yl)methoxy)-5,6,7,8-tetrahydropyrido[3,4-d]pyrimidin-4-yl)-5,6,7,8-tetrahydro-4H-pyrazolo[1,5-a][1,4]diazepin-2-yl)methanone]
IC50 (H460 cells): 40 nM | IC50 (KRas G12D): < 2 nM | IC50 (H727 cells): 10 nM | IC50 (MKN1 cells; [1]): 5.5 nM | IC50 (HCT116 cells): 123 nM | IC50 (ASPC1 cells): 4 nM | IC50 (PSN1 cells; 3 hr compound incubation): 4070 nM | IC50 (H358 cells): 4 nM | IC50 (KRas G12R): < 2 nM | IC50 (KRas G12V): < 2 nM | IC50 (A549 cells): 3 nM

CCc1c(F)ccc2cc(O)cc(N3CCc4c(nc(OC[C@@]56CCCN5C[C@H](F)C6)nc4N4CCCn5nc(C(=O)N6C[C@@H]7CCC[C@H]6C7)cc5C4)C3)c12 [Example 615, ((1R,5S)-6-azabicyclo[3.2.1]octan-6-yl)(5-(7-(8-ethyl-7-fluoro-3-hydroxynaphthalen-1-yl)-2-(((2R,7aS)-2-fluorotetrahydro-1H-pyrrolizin-7a(5H)-yl)methoxy)-5,6,7,8-tetrahydropyrido[3,4-d]pyrimidin-4-yl)-5,6,7,8-tetrahydro-4H-pyrazolo[1,5-a][1,4]diazepin-2-yl)methanone]
IC50 (H460 cells): 41 nM | IC50 (KRas G12D): 3 nM | IC50 (H727 cells): 4 nM | IC50 (MKN1 cells; [1]): 34.6 nM | IC50 (HCT116 cells): 144 nM | IC50 (ASPC1 cells): 7 nM | IC50 (PSN1 cells; 3 hr compound incubation): 4640 nM | IC50 (H358 cells): 6 nM | IC50 (KRas G12R): 2 nM | IC50 (KRas G12V): < 2 nM | IC50 (A549 cells): 15 nM

CCc1c(F)ccc2cc(O)cc(N3CCc4c(nc(OC[C@@]56CCCN5C[C@H](F)C6)nc4N4CCCn5nc(C(=O)N6C[C@H]7CCC[C@@H]6C7)cc5C4)C3)c12 [Example 616, ((1S,5R)-6-azabicyclo[3.2.1]octan-6-yl)(5-(7-(8-ethyl-7-fluoro-3-hydroxynaphthalen-1-yl)-2-(((2R,7aS)-2-fluorotetrahydro-1H-pyrrolizin-7a(5H)-yl)methoxy)-5,6,7,8-tetrahydropyrido[3,4-d]pyrimidin-4-yl)-5,6,7,8-tetrahydro-4H-pyrazolo[1,5-a][1,4]diazepin-2-yl)methanone]
IC50 (H460 cells): 48 nM | IC50 (KRas G12D): 4 nM | IC50 (H727 cells): 17 nM | IC50 (MKN1 cells; [1]): 62.9 nM | IC50 (HCT116 cells): 176 nM | IC50 (ASPC1 cells): 17 nM | IC50 (PSN1 cells; 3 hr compound incubation): > 10000 nM | IC50 (H358 cells): 11 nM | IC50 (KRas G12R): 3 nM | IC50 (KRas G12V): < 2 nM | IC50 (A549 cells): 24 nM

CCc1c(F)ccc2cc(O)cc(N3CCc4c(nc(OC[C@@]56CCCN5C[C@H](F)C6)nc4N4CCCn5nc(C(=O)N6C[C@H]7CO[C@H](C7)C6)cc5C4)C3)c12 [Example 619, ((1S,5R)-6-oxa-3-azabicyclo[3.2.1]octan-3-yl)(5-(7-(8-ethyl-7-fluoro-^3-hydroxynaphthalen-1-yl)-2-(((2R,7aS)-2-fluorotetrahydro-1H-pyrrolizin-7a(5H)-yl)methoxy)-5,6,7,8-tetrahydropyrido[3,4-d]pyrimidin-4-yl)-5,6,7,8-tetrahydro-4H-pyrazolo[1,5-a][1,4]diazepin-2-yl)methanone]
IC50 (H460 cells): 34 nM | IC50 (KRas G12D): < 2 nM | IC50 (H727 cells): 7 nM | IC50 (MKN1 cells; [1]): 1.9 nM | IC50 (HCT116 cells): 69 nM | IC50 (ASPC1 cells): 5 nM | IC50 (PSN1 cells; 3 hr compound incubation): 1420 nM | IC50 (H358 cells): 1 nM | IC50 (KRas G12R): < 2 nM | IC50 (KRas G12V): < 2 nM | IC50 (A549 cells): 10 nM

CCc1c(F)ccc2cc(O)cc(N3CCc4c(nc(OC[C@@]56CCCN5C[C@H](F)C6)nc4N4CCCn5nc(C(=O)N6C[C@@H]7CO[C@@H](C7)C6)cc5C4)C3)c12 [Example 620, ((1R,5S)-6-oxa-3-azabicyclo[3.2.1]octan-3-yl)(5-(7-(8-ethyl-7-fluoro-3-hydroxynaphthalen-1-yl)-2-(((2R,7aS)-2-fluorotetrahydro-1H-pyrrolizin-7a(5H)-yl)methoxy)-5,6,7,8-tetrahydropyrido[3,4-d]pyrimidin-4-yl)-5,6,7,8-tetrahydro-4H-pyrazolo[1,5-a][1,4]diazepin-2-yl)methanone]
IC50 (H460 cells): 30 nM | IC50 (KRas G12D): < 2 nM | IC50 (H727 cells): 7 nM | IC50 (MKN1 cells; [1]): 3.7 nM | IC50 (HCT116 cells): 111 nM | IC50 (ASPC1 cells): 6 nM | IC50 (PSN1 cells; 3 hr compound incubation): 2670 nM | IC50 (H358 cells): 2 nM | IC50 (KRas G12R): < 2 nM | IC50 (KRas G12V): < 2 nM | IC50 (A549 cells): 24 nM

CCc1c(F)ccc2cc(O)cc(N3CCc4c(nc(OC[C@@]56CCCN5C[C@H](F)C6)nc4N4CCCn5nc(C(=O)N6CC[C@H]7C[C@@H]6CO7)cc5C4)C3)c12 [Example 623, ((1R,5S)-6-oxa-2-azabicyclo[3.2.1]octan-2-yl)(5-(7-(8-ethyl-7-fluoro-3-hydroxynaphthalen-1-yl)-2-(((2R,7aS)-2-fluorotetrahydro-1H-pyrrolizin-7a(5H)-yl)methoxy)-5,6,7,8-tetrahydropyrido[3,4-d]pyrimidin-4-yl)-5,6,7,8-tetrahydro-4H-pyrazolo[1,5-a][1,4]diazepin-2-yl)methanone]
IC50 (H460 cells): 12 nM | IC50 (KRas G12D): < 2 nM | IC50 (H727 cells): 2 nM | IC50 (MKN1 cells; [1]): 1.6 nM | IC50 (HCT116 cells): 31 nM | IC50 (ASPC1 cells): 1 nM | IC50 (PSN1 cells; 3 hr compound incubation): 1420 nM | IC50 (H358 cells): 1 nM | IC50 (KRas G12R): < 2 nM | IC50 (KRas G12V): < 2 nM | IC50 (A549 cells): 5 nM

CCc1c(F)ccc2cc(O)cc(N3CCc4c(nc(OC[C@@]56CCCN5C[C@H](F)C6)nc4N4CCCn5nc(C(=O)N6CC[C@@H]7C[C@H]6CO7)cc5C4)C3)c12 [Example 624, ((1 S,5R)-6-oxa-2-azabicyclo[3.2.1]octan-2-yl)(5-(7-(8-ethyl-7-fluoro-3-hydroxynaphthalen-1-yl)-2-(((2R,7aS)-2-fluorotetrahydro-1H-pyrrolizin-7a(5H)-yl)methoxy)-5,6,7,8-tetrahydropyrido[3,4-d]pyrimidin-4-yl)-5,6,7,8-tetrahydro-4H-pyrazolo[1,5-a][1,4]diazepin-2-yl)methanone]
IC50 (H460 cells): 22 nM | IC50 (KRas G12D): < 2 nM | IC50 (H727 cells): 6 nM | IC50 (MKN1 cells; [1]): 10.5 nM | IC50 (HCT116 cells): 66 nM | IC50 (ASPC1 cells): 4 nM | IC50 (PSN1 cells; 3 hr compound incubation): 2470 nM | IC50 (H358 cells): 4 nM | IC50 (KRas G12R): < 2 nM | IC50 (KRas G12V): < 2 nM | IC50 (A549 cells): 19 nM

CCc1c(F)ccc2cc(O)cc(N3CCc4c(nc(OC[C@@]56CCCN5C[C@H](F)C6)nc4N4CCCn5nc(C(=O)N(C)C)c(O)c5C4)C3)c12 [Example 628, 5-(7-(8-ethyl-7-fluoro-3-hydroxynaphthalen-1-yl)-2-(((2R,7aS)-2-fluorotetrahydro-1H-pyrrolizin-7a(5H)-yl)methoxy)-5,6,7,8-tetrahydropyrido[3,4-d]pyrimidin-4-yl)-3-hydroxy-N,N-dimethyl-5,6,7,8-tetrahydro-4H-pyrazolo[1,5-a][1,4]diazepine-2-carboxamide]
IC50 (H460 cells): 32 nM | IC50 (KRas G12D): < 2 nM | IC50 (H727 cells): 13 nM | IC50 (MKN1 cells; [1]): 1.6 nM | IC50 (HCT116 cells): 78 nM | IC50 (ASPC1 cells): 2 nM | IC50 (PSN1 cells; 3 hr compound incubation): > 10000 nM | IC50 (H358 cells): 3 nM | IC50 (KRas G12R): < 2 nM | IC50 (KRas G12V): < 2 nM | IC50 (A549 cells): 7 nM
